In patent US20170157251A1, “Bi-Specific Monovalent Diabodies That are Capable of Binding CD19 and CD3, and Uses Thereof” (MacroGenics, Inc., priority 2015, published 2017):

Tests used:
human T cells [1] = test: Ibrutinib alone on ex vivo T-cell proliferation (CellTiter-Glo); type: cell-based; conditions: 25, 250, 750 or 2500 nM, up to 3 days
Experimental: (§1) Normal human T cells (100,000/well) were treated with increasing concentrations of ibrutinib (0 nM, 25 nM, 250 nM, 750 nM or 2500 nM) for 0, 24, 48, and 72 hours under ex vivo T-cell proliferation/activation conditions, which contained T-cell activator anti-CD3/CD28 Dynabeads and rhIL-2.
Cell viability was determined using the CellTiter-Glo® Luminescent Viability Assay with relative light units (RLU) proportional to the number of viable cells.

human T cells [2] = test: Ibrutinib alone on ex vivo T-cell activation (CD25); type: cell-based
Experimental: as §1
The percentages of CD25 in CD4+ and CD8+ T cell subsets were determined by flow cytometry. The effect of ibrutinib treatment alone on upregulation of CD25, a T-cell activation marker, was also evaluated on T cells activated with anti-CD3/CD28 and rhIL2.

human T cells [3] = test: Ibrutinib alone on ex vivo T-cell cytokine production (ELISA); type: cell-based
Experimental: as §1
Production of IFN-γ, TNF-α, and IL-10 was measured by ELISA. […] Because of the minimal IL-6 cytokine production under the ex vivo T-cell proliferation/activation conditions tested, evaluation of ibrutinib's effect on IL-6 induction was not feasible.

Raji/GF cells = test: DART-A-mediated redirected killing of Raji/GF cells using ibrutinib-pretreated T cells (luciferase); type: cell-based, human; conditions: T cells pretreated with 2500 nM ibrutinib
Experimental: (§2) Suspension-cultured CD19-positive Raji/GF cells were harvested and washed with 1×DPBS or assay media containing RPMI 1640 without phenol red, 10% FBS, and pen/strep. Cell concentration and viability were measured by Trypan Blue dye exclusion using a Beckman Coulter Vi-Cell counter. The target cells were diluted in assay media to a cell density of 2×10^5 cells/mL. 50 μL of the diluted cell suspension was added to a 96-well, flat-bottom NUNCLON DELTA white plate (Thermo Scientific Cat #136101). For each treatment, duplicate wells were included. Human T cells, following treatment with ibrutinib for various times as described above, were collected and washed 3 times with assay media. After the final wash, the T cells were counted and resuspended in the assay medium at a cell density of 1×10^6 cells/mL and 100 μL were added to each well. […] The plates were incubated at room temperature in the dark for 10 minutes and then luciferase intensity was measured using a Victor2 Multilabel plate reader (Perkin Elmer #1420-014) with luciferase relative light unit (RLU) as the read-out. […] The percent cytotoxicity values were calculated as described below and concentration-response curves were generated using GraphPad Prism 6 software with curve fitting by the sigmoidal dose-response function.
Specific cell lysis was calculated from RLU data using the following formula: […]

Raji/GF target cells = test: DART-A-mediated redirected killing of Raji/GF cells with concomitant ibrutinib; type: cell-based, human
Experimental: as §2, with “function. […]” for “function.”

[4] = test system: human CD4+ and CD8+ T cells; test: DART-A-mediated T cell activation (CD25) with Raji/GF cells and concomitant ibrutinib; type: cell-based
Experimental: Assays were conducted as described above, except that: 1) fresh human T cells were substituted for ibrutinib pretreated human T cells; 2) 50 μL of T cells containing 200,000 cells were added into each well; and 3) 50 μL of ibrutinib solution at 10, 3, 1, 0.2, or 0 μM were added into the assay plates. […] The ibrutinib solutions were prepared by diluting a 1000 μM stock solution in 100% DMSO in assay medium with DMSO concentration being diluted to 1% DMSO. The final ibrutinib concentrations on the plate were 2500, 750, 250, 50, or 0 nM and the final DMSO concentration was 0.25%. Plates were incubated and processed as described previously.
However, the presence of ibrutinib inhibited DART-A-mediated CD25 upregulation in a concentration-dependent manner.

primary B-cell (CD20+) = test: DART-A-mediated autologous B-cell depletion with human PBMCs in the presence of ibrutinib; type: cell-based
Source text: (§3) An autologous B-cell depletion assay with human PBMCs, which comprise both target cells (CD19+ B cells) and effector cells (CD3+ T cells) in a physiologically relevant cellular context, was utilized to evaluate the effect of ibrutinib on DART-A-mediated primary B-cell depletion, concomitant T-cell activation, and cytokine release.

human PBMCs = test: T-cell activation and cytokine release with DART-A-mediated B-cell depletion in human PBMCs in the presence of ibrutinib; type: cell-based
Source text: as §3

[5] = once daily oral dose of 560 mg, cited from earlier work
CD3 = CD3 (Homo sapiens, UniProt P07766); conditions: reported; read-out: affinity for CD3; cited from earlier work
CD3, sequence (P07766 23-207): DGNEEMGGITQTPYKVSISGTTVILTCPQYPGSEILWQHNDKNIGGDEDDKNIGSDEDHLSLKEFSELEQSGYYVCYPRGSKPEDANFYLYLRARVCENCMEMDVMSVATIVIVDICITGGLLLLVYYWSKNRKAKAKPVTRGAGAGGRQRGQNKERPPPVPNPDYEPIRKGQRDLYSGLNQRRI
CD3, sequence (P04234 22-171 partner): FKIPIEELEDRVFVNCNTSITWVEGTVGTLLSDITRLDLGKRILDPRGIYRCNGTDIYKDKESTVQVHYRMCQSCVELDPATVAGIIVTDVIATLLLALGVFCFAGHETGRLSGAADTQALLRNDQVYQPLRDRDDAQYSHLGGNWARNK
CD3, sequence (P09693 23-182 partner): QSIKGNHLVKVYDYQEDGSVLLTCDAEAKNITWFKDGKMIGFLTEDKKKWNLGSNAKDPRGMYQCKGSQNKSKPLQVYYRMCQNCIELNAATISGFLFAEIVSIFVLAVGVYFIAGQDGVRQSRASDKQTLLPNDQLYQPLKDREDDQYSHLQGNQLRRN

CD19 = biological target: T1, CD19 (Homo sapiens, UniProt P15391); conditions: reported; read-out: affinity for CD19; cited from earlier work
T1 sequence (P15391 20-556): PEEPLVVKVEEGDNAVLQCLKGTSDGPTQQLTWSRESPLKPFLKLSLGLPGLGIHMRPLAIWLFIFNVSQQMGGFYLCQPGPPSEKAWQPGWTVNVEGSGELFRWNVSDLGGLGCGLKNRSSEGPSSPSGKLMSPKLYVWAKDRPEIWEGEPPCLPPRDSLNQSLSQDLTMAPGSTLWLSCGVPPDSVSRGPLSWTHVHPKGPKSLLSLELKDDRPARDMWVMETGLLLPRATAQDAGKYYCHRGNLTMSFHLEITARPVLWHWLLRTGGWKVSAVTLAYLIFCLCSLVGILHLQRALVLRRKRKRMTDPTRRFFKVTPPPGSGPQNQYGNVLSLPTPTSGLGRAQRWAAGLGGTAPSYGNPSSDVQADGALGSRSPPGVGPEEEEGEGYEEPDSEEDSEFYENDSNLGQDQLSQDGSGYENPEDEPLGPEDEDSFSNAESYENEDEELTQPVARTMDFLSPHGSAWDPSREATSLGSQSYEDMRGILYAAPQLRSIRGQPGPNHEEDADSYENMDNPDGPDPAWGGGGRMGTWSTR

target cell = conditions: reported; cited from earlier work
indolent lymphomas = conditions: retreatment with single agent; cited from earlier work

C=CC(=O)N1CCC[C@@H](n2nc(-c3ccc(Oc4ccccc4)cc3)c3c(N)ncnc32)C1 [ibrutinib, 1-[(3R)-3-[4-Amino-3-(4-phenoxyphenyl)-1H-pyrazolo[3,4-d]pyrimidin-1-yl]piperidin-1-yl]prop-2-en-1-one, reference compound]
ability of T cells to respond to anti-CD3/CD28 and rhIL-2 stimulation (cell numbers) (human T cells [1]): had no impact | impact on CD25+ upregulation (human T cells [2]; ibrutinib 750 nM): some modest impact | reduction in the number of CD4+/CD25+ T cells (human T cells [2]; ibrutinib 2500 nM, 24 hour): ~60% | reduction in the number of CD8+/CD25+ T cells (human T cells [2]; ibrutinib 2500 nM, 24 hour): ~95% | inhibition of CD25 upregulation (human T cells [2]; ibrutinib ≦250 nM): minimal or no inhibition | IFN-γ (human T cells [3]; 2500 nM, all time points): a small reduction in IFN-γ | IL-10 and TNF-α production (human T cells [3]; 2500 nM, from 24 hours): decreased IL-10 and TNF-α production | impact on TNF-α, IL-10 and IFN-γ release (human T cells [3]; up to 750 nM, up to 72 hours): no or minimal impact | increase in DART-A EC50 value (Raji/GF cells): ~3 fold | increase of DART-A EC50 values (Raji/GF target cells; ibrutinib 750 nM, both time points): 8-9 fold | inhibitory effect on DART-A-mediated redirected T-cell killing (Raji/GF target cells; ibrutinib ≦250 nM): no or minimal inhibitory effect | Emax at 0.75 µM ([4]; ibrutinib 750 nM, read-out: inhibition in the maximal levels (Emax) of T-cell activation): ≤ 36% | Emax at 2.5 µM ([4]; ibrutinib 2500 nM, read-out: inhibition in the maximal levels (Emax) of T-cell activation): ≤ 63% | Emax ([4]; ibrutinib ≦250 nm, vs untreated group, read-out: inhibition in the maximal levels (Emax) of T cell activation (% CD25)): < 20% | inhibition at 0.75 µM (primary B-cell (CD20+); Homo sapiens, B-cell, ibrutinib 750 nM): 8% | inhibition at 2.5 µM (primary B-cell (CD20+); Homo sapiens, B-cell, ibrutinib 2500 nM): 60% | inhibition of DART-A-mediated primary B-cell (CD20+) depletion (primary B-cell (CD20+); ibrutinib ≦250 nM): minimal to no inhibition | inhibition of concomitant T-cell activation and cytokine production (human PBMCs; ibrutinib 250 nM): partial inhibition | inhibition of concomitant T-cell activation and cytokine production (human PBMCs; ibrutinib 2500 nM): nearly complete inhibition | minimum (Ctrough) serum concentration [5]: 25 to 50 nM | Cmax ([5]; read-out: maximum (Cmax) serum concentration): ~250 nM

Blinatumomab: bi-specific scFv-CD19×CD3 BiTE
Kd (CD3): ~100 nM | Kd (CD19): ~1 nM | EC50 for target cell lysis in vitro (target cell): 0.01 to 0.1 ng/mL

rituximab: anti-CD20 monoclonal antibody
response rate (indolent lymphomas): 40%
